One series has as its system HCT-116. As to the kind of experiment: Cytotoxicity by SRB assay in HCT-116 cells. Format: cell-based, human. The procedure: (§1) The fraction of cell survival was calculated as follows. Survival fraction=(OD treated−blank)/(OD control−blank). […] Each experiment was repeated three times.
Series [1] relates to HT-29. As to the kind of experiment: Cytotoxicity by SRB assay in HT-29 cells. Background: Sulforhodamine B stains cellular protein and so reports cell mass.
Method: (§4) Cancer cell lines were obtained from ATCC unless otherwise noted. HT-29 and HCT-116 cells were cultured in Dulbecco's Modified Eagle Medium (DMEM, Thermo Fisher Scientific) with 10% fetal bovine serum (FBS, Thermo Fisher Scientific) and 1% antibiotic-antimycotic (Thermo Fisher Scientific).
(§5) Briefly, CRC cells were seeded at a density of 5×10^3 cells/well in 96-well microtiter plates (100 μL/well), separated into two groups with or without GSH. After incubation for 24 hours, the culture medium was replaced by fresh medium (100 μL). […] After incubation, 10% cold trichloroacetic acid was gently added to each well and incubated at 4° C. for 1 h. The medium was removed, carefully washed with water, and dried at room temperature. […] The optical density (O.D.) was measured at 510 nm with Multi-Mode Microplate Reader (SpectraMax Paradigm, Beckman Coulter, U.S.). The fraction of cell survival was calculated as follows. Survival fraction=(OD treated−blank)/(OD control−blank). […] Each experiment was repeated three times.
For the next series, the system named is GLUT-1. In words: 2-NBDG uptake assay in COS-7 cells that overexpress GLUT-1. The series is classed as cell-based. The conditions noted are these: 50 μM and 100 μM. The procedure: COS-7 cells were seeded in 96-well culture plates and grown in low-glucose Dulbecco's Modified Eagle's medium supplemented with 10% fetal bovine serum and 2 mM L-glutamine for 24 h. After washing with Krebs Ringer bicarbonate buffer (KRB) (10 mM HEPES, 129 mM NaCl, 4.7 mM KCl, 2 mM CaCl2) and 1.2 mM MgSO4, 1.2 mM KH2PO4, 5 mM NaHCO3, pH 7.4), cells were incubated with the compounds to be tested in KRB containing 2-NBDG (200 μM) for 90 min at 37° C. in a 5% CO2 atmosphere, and then washed twice with KRB and lysed with lysis buffer (1% Nonidet P-40, 1% sodium deoxycholate, 40 mM KCl, and 20 mM Tris, pH 7.4). Finally, the lysates were transferred to black 96-well plates and fluorescence intensity was detected with a Multi-Mode Microplate Reader (SpectraMax Paradigm, Beckman Coulter, USA) using an excitation wavelength of 475 nm and an emission wavelength of 550 nm.

In series [2] the test system is CRC cell lines HCT-116 and HT-29. As to the kind of experiment: Cytotoxicity against CRC cell lines, summary over both lines (SRB assay). Format: cell-based, human. The procedure:
as §1

In series [3] the test system is metastatic colorectal cancer. Conditions: cited from earlier work.
Series [4] has as its system HT-29.
Method: as §4, §5
Series [5] deals with orthotopic CRC mice model. As to the kind of experiment: Orthotopic AOM/DSS-induced CRC mice model, tumor area. Format: in vivo, BALB/c mice. As to the method:
Azoxymethane (AOM)-induced murine CRC model was applied to model human CRC. BALB/c mice (6 weeks of age, male) were intraperitoneally (i.p.) injected once every two weeks with AOM (10 mg/kg body weight) or the PBS vehicle. Seven days after each AOM injection, 2% dextran sulfate sodium (DSS) was given in the drinking water for four days, followed by 3 days of regular water. This cycle was repeated three times. The mice were randomly divided into eight groups (n=5), on day 60 after the first AOM treatment. […] Tumor volumes and body weights were recorded at sacrifice. The tumors were counted under a dissecting microscope, and the area covered by tumors was measured by imaging software (AxioVision LE 4.8.2.0).

Series [6] can be described thus: Plasma pharmacokinetics in mice (UPLC-MS/MS). Format: in vivo, BALB/c mice. Conditions: i.p. injection; 5-FU measured in plasma. As to the method: (§2) In the following PK experiments, BALB/c mice (six weeks of age, male) were randomly divided into two groups (n=3). […] Blood samples were collected via femoral vein by syringes at 0, 1, 3, 5, 10, 15, 30, 45 min, 1, 2, 4, and 24 h after drug administration. 50 μL blood samples were collected into 100 μL extraction solvent (EtOAc/MeOH=1:1) and vortex for 30 sec. The supernatants were separated from the mixture by centrifugation at 10,000 rpm for 10 min and frozen at −30° C. pending UPLC-MS/MS analysis. For bio-distribution experiments, the entire dissected organs were placed into round-bottom after weighting, two-milliliter microcentrifuge tubes with 1 mL of extraction solvent (EtOAc/MeOH=1:1) and 7 mm stainless steel beads, then homogenized for 30 min. All of the containers were maintained at 4° C. throughout the process. The supernatants were separated from the mixture by centrifugation at 10,000 rpm for 10 min and frozen at −30° C. The 200 μL solvent from crude organ suspensions was removed by the dryer and then dissolved in 50 μL extraction solvent. All samples were stored at −30° C. and analyzed within 24 h. All of the samples were filtered through 0.22 μm PTFE membranes into 12×32 mm vials for UPLC-MS/MS analyses using 5-FU-^15N2 as a marker. Pharmacokinetic parameters were calculated using the WinNonlin Software (version 5.2, Pharsight, MO, USA.)
(§3) Analyses were performed on an ACQUITY UPLC I-Class/Xevo TQ-XS IVD System (Waters, Milford, MA, USA) from College of Public Health, National Taiwan University. The reverse phase BEH C18 (100 mm×2.1 mm, 1.7 μm, Waters) and VanGuard BEH C18 (5 mm×2.1 mm, 1.7 μm, Waters) precolumns were used to separate the analytes. All data were acquired by MassLynx V4.2. The mobile phase consisted of a 10 mM aqueous solution of ammonium acetate (A) and acetonitrile (B), set as follows: 0.00 min 98% A→1.00 min 98% A→3.00 min 10% A→4.50 min 10% A→4.60 min 98% A→6.00 min 98% A; at a rate of 0.5 mL/min for 6.00 min with 4 μL per injection. The column oven was maintained at 60° C. Multiple reaction monitoring (MRM) method was applied in quantification. Mass spectrometer parameters were as follows: capillary voltage, 3.0 kV/3.0 kV, respectively, for positive/negative ion mode; ion source temperature, 120° C.; desolvation temperature, 450° C.; cone gas flow (N2), 50 L/h; desolvation gas flow (N2), 700 L/h; multiplier, 650 V; and collision gas pressure (Ar), 3−4×10^−3 mbar.

Series [7] is described as follows: Organ biodistribution in mice (UPLC-MS/MS). Format: in vivo, BALB/c mice. Conditions: 1 hour post i.p. injection; compound 7 50 mg/kg, free 5-FU 9.5 mg/kg. The procedure:
as §2
as §3, with “Mass spectrometer parameters were as follows: capillary voltage, 3.0 kV/3.0 kV, respectively, for positive/negative ion mode; ion source temperature, 120° C.; desolvation temperature, 450° C.; cone gas flow (N2), 50 L/h; desolvation gas flow (N2), 700 L/h; multiplier, 650 V; and collision gas pressure (Ar), 3−4×10^−3 mbar.” left out

Series [8] is described as follows: Body weight changes in the CRC mice model. Format: in vivo, BALB/c mice. The conditions noted are these: free 5-FU 50 mg/kg i.p., after injection. The procedure: Azoxymethane (AOM)-induced murine CRC model was applied to model human CRC. BALB/c mice (6 weeks of age, male) were intraperitoneally (i.p.) injected once every two weeks with AOM (10 mg/kg body weight) or the PBS vehicle. Seven days after each AOM injection, 2% dextran sulfate sodium (DSS) was given in the drinking water for four days, followed by 3 days of regular water. This cycle was repeated three times. The mice were randomly divided into eight groups (n=5), on day 60 after the first AOM treatment. […] Irinotecan (20 mg/kg), compound 31 (20 mg/kg), and irinotecan+compound 17 (20 mg/kg of irinotecan and 14 mg/kg of compound 17) were injected i.p. q.o.d for two weeks. […] Tumor volumes and body weights were recorded at sacrifice. The tumors were counted under a dissecting microscope, and the area covered by tumors was measured by imaging software (AxioVision LE 4.8.2.0).

The test system of another series is NHDF. As to the kind of experiment: Cytotoxicity by SRB assay in low GLUT-1 normal cell line NHDF. Conditions: Homo sapiens, low expression GLUT-1 normal cell line. Format: cell-based. As to the method:
as §1

The mark [9] stands for this setting: Homo sapiens, HCT-116, read-out: IC50 HCT-116 5 mM GSH, 72 h, prepared in DMA, 5 mM GSH.
The mark [10] stands for this setting: Homo sapiens, HCT-116, 48 h, prepared in DMSO, read-out: IC50 HCT-116.
The mark [11] stands for this setting: Homo sapiens, HCT-116, 72 h, prepared in DMA, w/o GSH, read-out: IC50 HCT-116 w/o GSH.
The mark [12] stands for this setting: Homo sapiens, HT-29, 48 h, read-out: IC50 HT-29.
The mark [13] stands for this setting: Homo sapiens, HT-29, 48 h, read-out: IC50 HT-29 5 mM GSH.
Where [14] appears, read: Homo sapiens, HT-29, 48 h, read-out: IC50 HT-29 w/o GSH.

Where two headings read alike, the source gives them in different places.

Take `O=C(CCc1ccc(O)cc1)c1c(O)cc(OCCOCCOCCS)cc1O[C@@H]1O[C@H](CO)[C@@H](O)C(O)[C@H]1O` (stereo partly drawn) [Compound 16, 1-(2-Hydroxy-4-(2-(2-(2-mercaptoethoxy)ethoxy)ethoxy)-6-(((2S,3R,5S,6R)-3,4,5-trihydroxy-6-(hydroxymethyl)tetrahydro-2H-pyran-2-yl)oxy)phenyl)-3-(4-hydroxyphenyl)propan-1-one]: the IC50 in the series with HCT-116 (Homo sapiens, HCT-116, read-out: IC50 HCT-116 5 mM GSH, 48 h, 5 mM GSH) was more than 100 µM; in the series on HCT-116 (setting [9]), more than 100 µM; with HCT-116 (setting [10]), more than 100 µM; with HCT-116 (Homo sapiens, HCT-116, 48 h, w/o GSH, read-out: IC50 HCT-116 w/o GSH) it was more than 100 µM; in the series with HCT-116 (setting [11]), more than 100 µM; with HT-29 [1] (setting [12]), more than 100 µM. Further, the IC50 in the series on HT-29 [1] (setting [13]) was more than 100 µM; in the series with HT-29 [1] (setting [14]), more than 100 µM; in the series with HT-29 [1] (read-out: IC50 HT-29 5 mM GSH, 48 h, prepared in DMA, 5 mM GSH), more than 100 µM; with HT-29 [1] (read-out: IC50 HT-29 w/o GSH, 48 h, prepared in DMA, w/o GSH), more than 100 µM. The “inhibition of GLUT-1 activity (2-NBDG uptake), in words” value with GLUT-1 is recorded as “not able to inhibit GLUT-1”. Also, the “cytotoxicity against CRC cell lines, in words” value in series [2] (HCT-116 and HT-29, with or without GSH) is given as “did not exhibit any inhibitory activity”.
With `CCc1c2c(nc3ccc(OC(=O)N4CCC(N5CCCCC5)CC4)cc13)-c1cc3c(c(=O)n1C2)COC(=O)[C@]3(O)CC` [Irinotecan (39), irinotecan, reference compound], the IC50 in the series on HCT-116 (setting [9]) stood at 0.32 ± 0.02 µM; with HCT-116 (setting [10]), 3.69 ± 0.24 µM; in the series on HCT-116 (setting [11]), 0.36 ± 0.01 µM; in the series on HT-29 [1] (setting [12]), 8.51 ± 1.86 µM; in the series on HT-29 [1] (setting [13]), 6.44 ± 0.3 µM; with HT-29 [1] (setting [14]) it was 5.61 ± 0.11 µM. Further, the IC50 in [2] (Homo sapiens, HCT-116 and HT-29, over Tables 1 to 3, read-out: IC50 in CRC cells) lay within 0.3 to 8.5 µM. Besides, in series [3] (phase II, single-agent, patients resistant to fluorouracil), the response rate result was “about 27%”.
For `CCc1c2c(nc3ccc(OCc4ccc(NC(=O)[C@H](CCCNC(N)=O)NC(=O)[C@@H](NC(=O)CCCCN5C(=O)CC(SCCOCCOCCOc6cc(O)c(C(=O)CCc7ccc(O)cc7)c(O[C@@H]7O[C@H](CO)[C@@H](O)[C@H](O)[C@H]7O)c6)C5=O)C(C)C)cc4)cc13)-c1cc3c(c(=O)n1C2)COC(=O)[C@]3(O)CC` (stereo partly shown) [Compound 37], the “cytotoxicity in HT-29 cell line, in words” value in the series with HT-29 [4] was “less sensitive”. For the same compound, the IC50 with HCT-116 (48 h, prepared in DMSO, read-out: IC50 HCT-116) is 3.25 ± 0.42 µM; in the series with HCT-116 (Homo sapiens, HCT-116, 48 h, 48 h, prepared in DMSO, read-out: IC50 HCT-116), 3 to 7 µM; with HT-29 [1] (setting [12]), more than 100 µM. In addition, in series [5] (SN-38 series, i.v. once every two days for two weeks, 40 mg/kg vs irinotecan 40 mg/kg), the “anti-tumor efficacy (tumor area), in words” value was “ameliorated the tumor area”.
On to `O=c1[nH]cc(F)c(=O)[nH]1` [5-FU, 5-fluorouracil, reference compound], for which the “T. of 5-FU” value in [6] was 10 min. The “organ distribution of 5-FU, in words” value in series [7] is “distributed in stomach, spleen, and kidney”. The “reduction of tumor volume” value in [5] (5-FU series, 50 mg/kg i.p. once every 3 days for 3 weeks) was found to be 33%. For the same compound, the “mean response rate of patients” value in series [3] (5-FU-based chemotherapy) is given as “approximately 23%”. The “loss of body weight” value in [8] was “about 10%”. The compound further had an IC50 with NHDF of 70.4 ± 7.2 µM.
